Series [1] can be described thus: pKa value was determined. Format: physicochemical.
Series [2] can be described thus: Chemical half-life was evaluated at 37 degree C expressed as stability towards hydrolysis. It is filed as physicochemical.
For series [3], the target named is T1, Neutrophil elastase (Homo sapiens) (UniProt P08246).
T1 sequence (whole entry): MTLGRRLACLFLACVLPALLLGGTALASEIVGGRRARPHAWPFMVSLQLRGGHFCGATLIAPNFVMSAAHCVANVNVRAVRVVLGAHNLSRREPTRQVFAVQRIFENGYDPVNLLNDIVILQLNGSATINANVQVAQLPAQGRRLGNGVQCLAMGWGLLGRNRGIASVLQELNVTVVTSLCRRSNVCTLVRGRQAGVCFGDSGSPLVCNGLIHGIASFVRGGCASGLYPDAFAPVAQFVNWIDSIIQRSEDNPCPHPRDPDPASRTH
Put plainly: Inhibition of human leukocyte elastase II (HLE-II) as second order rate constant.

One may read the pKa as the negative logarithm of the acid dissociation constant. As usually defined, the half-life is the time in which the quantity being followed falls by half. Low readings indicate fast loss, high ones slow loss. Compound `CO[C@H]1C(=O)N2C(C(=O)c3ccccc3)=C(CSc3nnnn3C)C(Sc3nnnn3C)S(=O)(=O)[C@H]12` (some centres not stated) yielded a pKa in series [1] of 3.5. In series [2], this compound gave a half-life of 850 h.
The matching figures for `CO[C@H]1C(=O)N2C(C(=O)C(C)(C)C)=C(CSc3nnnn3C)CS(=O)(=O)[C@H]12`: 11.6 and 24 h.
Turning to `CO[C@H]1C(=O)N2C(C(=O)c3ccccc3)=C(C)C(Sc3nnnn3C)S(=O)(=O)[C@H]12` (some centres not stated), the pKa in series [1] was found to be 4.8. In series [2], this compound had a half-life of 120 h. Moreover, the k on in series [3] worked out at 200 M⁻¹ s⁻¹.
`CO[C@H]1C(=O)N2C(C(=O)C(C)(C)C)=C(CSc3nnnn3C)C(Sc3nnnn3C)S(=O)(=O)[C@H]12` (some centres not stated) came in with a pKa in series [1] of 6. Moreover, the half-life in series [2] was 24 h.
`CO[C@H]1C(=O)N2C(C(=O)C(C)(C)C)=C(C)C(Sc3nnc(C)s3)S(=O)(=O)[C@H]12` (some centres not stated) returned a pKa in series [1] of 7.5. The half-life in series [2] is 26 h. The compound also came in with a k on in series [3] of 42000 M⁻¹ s⁻¹.
`CO[C@H]1C(=O)N2C(C(=O)C(C)(C)C)=C(C)CS(=O)(=O)[C@H]12` had a half-life in series [2] of 130 h.
Take `CO[C@H]1C(=O)N2C(C(=O)C(C)(C)C)=C(C)C(Sc3nc(=O)c(=O)[nH]n3C)S(=O)(=O)[C@H]12` (some centres not stated): in series [1], the pKa is 8.9. This compound also had a half-life in series [2] of 16.3 h. Besides, the k on in series [3] came to 54000 M⁻¹ s⁻¹.
The matching figures for `CO[C@H]1C(=O)N2C(C(=O)C(C)(C)C)=C(C)C(Sc3nnnn3C)S(=O)(=O)[C@H]12` (some centres not stated): 7.9, 14.8 h and 100000 M⁻¹ s⁻¹.
In turn, `CO[C@H]1C(=O)N2C(C(=O)c3ccccc3)=C(C)CS(=O)(=O)[C@H]12` yielded a pKa in series [1] of 9.6. The same compound had a half-life in series [2] of 33 h.
Take `CO[C@H]1C(=O)N2C(C(=O)C(C)(C)C)=C(CSc3nnc(C)s3)CS(=O)(=O)[C@H]12`: the pKa in series [1] came out at 11.9. In series [2], this compound gave a half-life of 37 h. In series [3], this compound had a k on of 32000 M⁻¹ s⁻¹.
In the case of `CO[C@H]1C(=O)N2C(C(=O)c3ccccc3)=C(CSc3nnnn3C)CS(=O)(=O)[C@H]12`, in series [1], the pKa is 8.4. This compound also gave a half-life in series [2] of 8.6 h.
Compound `CO[C@H]1C(=O)N2C(C(=O)C(C)(C)C)=C(CSc3nnc(C)s3)C(Sc3nnc(C)s3)S(=O)(=O)[C@H]12` (some centres not stated) yielded a pKa in series [1] of 5.8. The compound also showed a half-life in series [2] of 46 h. The compound also registered a k on in series [3] of 21000 M⁻¹ s⁻¹.
Compound `CO[C@H]1C(=O)N2C(C(=O)c3ccccc3)=C(C)C(Sc3nc(=O)c(=O)[nH]n3C)S(=O)(=O)[C@H]12` (some centres not stated) came in with a pKa in series [1] of 5.7. For the same compound, the half-life in series [2] is 86 h. The k on in series [3] is 930 M⁻¹ s⁻¹.
